{
  "source": "paper PMC3592886",
  "about": "“Utilization of Quantitative In Vivo Pharmacology Approaches to Assess Combination Effects of Everolimus and Irinotecan in Mouse Xenograft Models of Colorectal Cancer” (PLoS ONE, 2013)",
  "key": {"[1]": {"test_system": "VEGF and bFGF stimulated endothelial cells (HUVECs)", "parameters": "method as in PMID 19223496", "details": "read-out: IC50, anti-proliferative activity; cited from earlier work"}, "HT29 cells": {"test_system": "HT29 cells", "experiment": "In vitro metabolomics, HT29 cells", "assay_type": "cell-based", "details": "24 and 96 hours exposure to 30nM RAD001", "procedure": "Metabolomics was performed in vitro on HCT116\n(KRAS mt; PIK3CA mt) and HT29 (BRAF mt;\nPIK3CA mt) cells after 0 (control), 24 and 96 hours exposure to 30nM RAD001. In both cell lines after 24 and 96 hours glucose uptake was reduced showing a decrease in proliferation. […]"}, "HT29 tumors": {"test_system": "HT29 tumors", "experiment": "NMR-based metabolomics of HT29 tumors", "assay_type": "in vivo, mice", "details": "end of study", "procedure": "(§1) When HT29 and HCT116 tumors reached an average volume of ∼325 mm^3 animals were randomized into four treatment groups (n = 9–10 mice per group): (i) vehicles, (ii) 5 mg/kg everolimus (RAD) by oral gavage (PO) daily, (iii) 10 mg/kg irinotecan (IRI) once weekly by intravenous (iv) tail vein injection, and (iv) a combination of RAD and IRI. Everolimus, diluted in sterile water, and irinotecan, diluted in sterile 0.9% saline, were administered at 4 mL/kg. Animals were treated for 28 days. Tumor volumes and body weights were measured 2–3 times weekly. On day 28 of treatment 3–6 animals per group were sacrificed, approximately 24 hours following everolimus treatment, and tumors harvested for metabolomic analysis.\nFor metabolomic analysis, animals were fasted for 4 hours then received 250 mg/kg of [1-^13C] glucose (Cambridge Isotopes, Cambridge, MA) by IV injection 60 minutes prior to tumor harvesting. Snap-frozen tumor specimens underwent two-phase acid extraction procedure (using 8% perchloric acid) previously established and extensively published [19]–[22]. Further details may also be found in Supplement S1 (section SA.2.)."}, "HCT116 tumor xenografts [2]": {"test_system": "HCT116 tumor xenografts", "experiment": "Therapeutic study and tumor growth modeling, HCT116 tumor xenografts", "assay_type": "in vivo, mice", "procedure": "For tumor bearing studies, cells were harvested and resuspended in a 1∶1 mixture of serum-free RPMI and Matrigel (BD Bioscience). One million cells were injected subcutaneously into each rear flank of mice. Tumor volumes, measured by digital calipers, were calculated by V (mm^3) = length x (width)^2 x 0.5236.\nas §1\nData from the in vivo study was modeled to assess the therapeutic benefit of adding everolimus to irinotecan. The model used was similar to a previously published model for assessing combination therapy. Some modifications were made and details of the model can be found in Supplement S1 (section SA.3.) and Supplement S2. All modeling was performed on individual animal tumor volume data and modeled with SAAM II version 2.1. […]\nare presented in Tables 1 and 2 in Supplement B. Individual fits of the model to the data can also be found in Supplement B. The average growth terms for each tumor type were then fixed at the average parameter value and used to determine the single agent effects (kx) of each compound by fitting the following equation: […] where cx(t) is the concentration of drug x with respect to time. Individual tumors were modeled and the average value of kx determined (Supplement B Tables 1 & 2) for each single agent treatment. This value was used to fit the following equation to the combination tumor growth data to determine the degree of interaction between the two drugs.\n, the interaction term, was determined for each individual tumor for each tumor type and the data is presented in Table 2 in the main text and individual fits can be found in Supplement B.\nWe determined that values greater than 1.3 are synergistic, between 1.3 and 0.7 are additive, between 0.7 and 0 are less than additive, and negative values for are antagonistic. These ranges were selected based on the model fits. The CV% for the model fits ranged from 15 to 50 with an average CV% of approximately 30%. Therefore we assume an average variance of 30% making the additive range from 1.3 to 0.7 (1 + 30% and 1- 30%). […]"}, "HCT116 cells": {"test_system": "HCT116 cells", "experiment": "Sulforhodamine B (SRB) anti-proliferation assay, HCT116", "assay_type": "cell-based", "procedure": "Cytoxic effects were determined using the sulforhodamine B (SRB) assay. Briefly, 5000 viable cells were plated into 96-well plates and incubated overnight prior to exposure with different concentrations of drugs. Cells were exposed to increasing concentrations of everolimus (0–200 nM), SN38 (0–8 nM), and combinations of the two. Following a 72 hour incubation, media was removed and cells were fixed with cold 10% trichloroacetic acid for 30 minutes at 4° C. Cells were washed with water and stained with 0.4% SRB for 30 minutes at room temperature. Cells were washed again with 1% acetic acid and stain was solubilized with 10 mM tris at room temperature and read at an OD of 565 nm. […] The resulting Combination Index (CI) was used as a quantitative measure of the degree of interaction between different drugs. A CI value equal to 1 denotes additivity; CI greater than 1, antagonism; CI less than 1, synergism."}, "HCT116 tumor xenografts [3]": {"test_system": "HCT116 tumor xenografts", "parameters": "method as in PMID 19223496, PMID 20124452", "details": "everolimus at 10–12 mg/kg, mice bearing HCT116 tumor xenografts; cited from earlier work"}, "[4]": {"test_system": "ribosomal phospho-S6 kinase (pS6RP)", "experiment": "Western blot, pS6RP in CRC cell lines", "assay_type": "cell-based", "details": "everolimus 20 nM, 24 hours, all cell lines", "procedure": "Cells were seeded into 6-well plates 24 hours prior to treatment with each drug alone or in combination for 24 hours. Cells were scraped into RIPA buffer containing protease inhibitors, EDTA, NaF, and sodium orthovanadate. Total protein was determined using the Pierce 660 nm Protein Assay (Pierce, Rockford, IL). Thirty micrograms of total protein was loaded onto a 4–12% gradient gel, electrophoresed and transferred to nitrocellulose using the iBlot system (Invitrogen, Carlsbad, CA). Membranes were blocked for one hour at room temperature with Licor Blocking Buffer (Licor, Lincoln, NE) prior to overnight incubation at 4°C with one of the following antibodies: pS6RP, tS6RP, pAKT, tAKT, pERK, tERK, p21, PARP, actin and α-tubulin (Cell Signaling, Beverly, MA). All antibodies were used at a 1∶1000 dilution except for pERK, which was used at 1∶2000. Following primary antibody incubation, blots were washed in TBS-Tween(0.1%), then incubated with the appropriate secondary antibody at 1∶15,000 (Licor, Lincoln, NE) for one hour at room temperature. After three additional washes, blots were developed using the Licor Odyssey (Licor, Lincoln, NE)."}},
  "data": [
    {"smiles": "CO[C@H]1C[C@@H]2CC[C@@H](C)[C@@](O)(O2)C(=O)C(=O)N2CCCC[C@H]2C(=O)O[C@H]([C@H](C)C[C@@H]2CC[C@@H](OCCO)[C@H](OC)C2)CC(=O)[C@H](C)/C=C(\\C)[C@@H](O)[C@@H](OC)C(=O)[C@H](C)C[C@H](C)/C=C/C=C/C=C/1C", "note": "[Everolimus, 40-O-(2-hydroxyethyl)-rapamycin]", "values": [
      {"measurement": "IC50", "setting": "[1]", "result": "0.1 to 0.8", "unit": "nM"},
      {"measurement": "glucose uptake", "setting": "HT29 cells", "result": "reduced"},
      {"measurement": "effects on glucose metabolism", "setting": "HT29 tumors", "result": "decrease in lactate and glycolysis"},
      {"measurement": "k2 (SD), single agent effect", "setting": "HCT116 tumor xenografts [2]; HCT116 (KRAS and PIK3CA mutant), RAD", "result": "0.000482 (0.00011) mL/ng*day-1"},
      {"measurement": "average tumor growth inhibition, TGI", "setting": "HCT116 tumor xenografts [2]; HCT116 xenografts, 5 mg/kg everolimus PO daily, 10 mg/kg irinotecan iv once weekly, or combination, 28 days", "result": 44, "unit": "%"},
      {"measurement": "%Growth Inhibition", "setting": "HCT116 cells; HCT116, RAD (20 nM), SN38 (4 nM) or the combination of the two, Figure 2", "result": 49, "unit": "%"},
      {"measurement": "IC50", "setting": "HCT116 cells; Homo sapiens, HCT-116, HCT116 cells", "result": 25, "unit": "nM"},
      {"measurement": "tumor growth inhibition, single agent", "setting": "HCT116 tumor xenografts [3]", "result": "45–55%"},
      {"measurement": "effect on ribosomal phospho-S6 kinase (pS6RP)", "setting": "[4]", "result": "able to inhibit"}
    ]}
  ]
}
